These results are taken from patent US20180252712A1, “RECEPTOR FOR NOROVIRUS AND USES THEREOF” (priority 2017, published 2018).

For one data set, the system named is MNoV^CW3. Kind of data set: CRISPR screen in BV2-Cas9 cells, sgRNA enrichment after MNoV^CW3 infection. It is filed as cell-based, murine norovirus. The note with it: for log2 fold enrichment after MNV infection relative to mock infected cells, CW3 MOI 0.05: MNoV^CW3, MOI 0.05, ten days post-infection; for log2 fold enrichment after MNV infection relative to mock infected cells, CW3 MOI 5: MNoV^CW3, MOI 5, ten days post-infection. On the procedure: (§1) BV2 cells were transduced with pXPR_101 (Addgene plasmid 52962) and selected with blasticidin for eleven days. Cas9 activity was assessed by transducing parental BV2 or BV2-Cas9 cells with pXPR_011 (Addgene plasmid 59702), expresses eGFP and a sgRNA targeting eGFP at an MOI<1 [1]. Cells were transduced for 2 days and subsequently, selected for five days with puromycin and the frequency of eGFP expression was assessed by flow cytometry. The mouse ASIAGO sgRNA CRISPR library contains six independent genome wide pools which each pool containing a unique sgRNA targeting each of 20,077 mouse genes. Four ASIAGO pools were independently used to generate the BV2 library (Doench et al submitted). Each ASIAGO pool was delivered by lentiviral transduction of 5×10^7 BV2 cells at an MOI ˜0.2. This equates to 1×10^7 transduced cells, which is sufficient for the integration of each sgRNA 500 independent times. Two days post transduction, puromycin was added to the media and transduced cells were selected for five days. For each experimental condition, 1×10^7 BV2-Cas9 cells containing sgRNAs were seeded in a T175 tissue culture flask. Cells were infected with either MNoV^CW3 or MNoV^CR6 at MOls of 0.05 and 5. Mock infected cells were harvested 48 hrs after seeding and served as a reference for sgRNA enrichment analysis. Ten days post-infection genomic DNA was isolated from surviving cells using a Qiamp DNA mini kit according to manufacturer instructions (Qiagen).
(§2) Illumina sequencing and STARS analysis was performed as described previously (Doench et al, in press). Briefly, genomic DNA was aliquoted into multiple wells of a 96-well plate with up to 10 μg of DNA in 50 μl total volume. A PCR mastermix consisting of ExTaq DNA polymerase (Clontech), ExTaq buffer, dNTP, P5 stagger primer, and water was generated. 40 μl of PCR master mix, and 10 μl of a barcoded primer was added to each well containing 50 μl of DNA. Samples were PCR amplified as follows: 95° C. for 1 min., followed by 28 cycles of 94° C. for 30 sec., 52.5° C. for 30 sec., 72° C. for 30 sec. with a final 10 min. at 72° C. PCR product was purified with Agencourt AMPure XP SPRI beads according to the manufacture's protocol (Beckman Coluter). Samples were sequenced on an Illumina HiSeq 2000. Barcodes in the P7 primer were deconvuluted and the sgRNA sequence was mapped to a reference file of sgRNAs in the ASIAGO library. To normalize for different numbers of reads per condition, read counts per sgRNA were normalized to 10^7 total reads per sample. This normalized value was then log-2 transformed. sgRNAs that were not sequenced were arbitrarily assigned a read count of 1. sgRNA frequencies were then analyzed using STARS software, which is available at broadinstitute.org/rnai/public/software/index (Doench et al, in press). STARS computes a score for each gene of rank-ordered sgRNA hits that was above […] of total sequenced sgRNAs. A STAR score was only assigned to genes that scored above this threshold in at least two of four independent genome wide pools.

Another data set relates to MNoV^CR6. Kind of data set: CRISPR screen in BV2-Cas9 cells, sgRNA enrichment after MNoV^CR6 infection. It is filed as cell-based, murine norovirus. The note with it: for log2 fold enrichment after MNV infection relative to mock infected cells, CR6 MOI 0.05: MNoV^CR6, MOI 0.05, ten days post-infection; for log2 fold enrichment after MNV infection relative to mock infected cells, CR6 MOI 5: MNoV^CR6, MOI 5, ten days post-infection. On the procedure:
as §1, §2

Consider “TCAGAGAAAGAAACGAAGAG: sgRNA used in screen, matches CD300lb (listed as DNA, chemistry not given here)”, for which, in the data set with MNoV^CW3, the “log2 fold enrichment after MNV infection relative to mock infected cells, CW3 MOI 0.05” value is given as −5.5 log2 fold enrichment and the “log2 fold enrichment after MNV infection relative to mock infected cells, CW3 MOI 5” value was −5.5 log2 fold enrichment. In addition, in the data set on MNoV^CR6, the “log2 fold enrichment after MNV infection relative to mock infected cells, CR6 MOI 0.05” value is −5.5 log2 fold enrichment and the “log2 fold enrichment after MNV infection relative to mock infected cells, CR6 MOI 5” value is on record as −5.5 log2 fold enrichment.

Regarding “TAGAGCAGAGAACTGCCACA: sgRNA used in screen, matches CD300ld (listed as DNA, chemistry not given here)”, in the data set with MNoV^CW3, the “log2 fold enrichment after MNV infection relative to mock infected cells, CW3 MOI 0.05” value is given as −6.7 log2 fold enrichment and the “log2 fold enrichment after MNV infection relative to mock infected cells, CW3 MOI 5” value is listed as −6.7 log2 fold enrichment. In the data set on MNoV^CR6, the “log2 fold enrichment after MNV infection relative to mock infected cells, CR6 MOI 0.05” value is given as −6.7 log2 fold enrichment and the “log2 fold enrichment after MNV infection relative to mock infected cells, CR6 MOI 5” value was −6.7 log2 fold enrichment.

As for “GTTACTGTGAACATTGGCCC: sgRNA used in screen, matches CD300lf (listed as DNA, chemistry not given here)”, in the data set with MNoV^CW3, the “log2 fold enrichment after MNV infection relative to mock infected cells, CW3 MOI 0.05” value worked out at 0.0 log2 fold enrichment and the “log2 fold enrichment after MNV infection relative to mock infected cells, CW3 MOI 5” value was found to be 12.1 log2 fold enrichment. In addition, in the data set with MNoV^CR6, the “log2 fold enrichment after MNV infection relative to mock infected cells, CR6 MOI 0.05” value was 0.0 log2 fold enrichment and the “log2 fold enrichment after MNV infection relative to mock infected cells, CR6 MOI 5” value is recorded as 12.0 log2 fold enrichment.

For “CTAGCTACTACTCTGATAAC: sgRNA used in screen, matches CD300lf (listed as DNA, chemistry not given here)”, in the data set on MNoV^CW3, the “log2 fold enrichment after MNV infection relative to mock infected cells, CW3 MOI 0.05” value worked out at 0.0 log2 fold enrichment and the “log2 fold enrichment after MNV infection relative to mock infected cells, CW3 MOI 5” value is 11.0 log2 fold enrichment. In addition, in the data set on MNoV^CR6, the “log2 fold enrichment after MNV infection relative to mock infected cells, CR6 MOI 0.05” value is given as 0.0 log2 fold enrichment and the “log2 fold enrichment after MNV infection relative to mock infected cells, CR6 MOI 5” value was determined as 9.8 log2 fold enrichment.

For the substance “GGTCGTCCCTGATGGACACA: sgRNA used in screen, matches CD300lh (listed as DNA, chemistry not given here)”, in the data set on MNoV^CW3, the “log2 fold enrichment after MNV infection relative to mock infected cells, CW3 MOI 0.05” value was found to be 12.0 log2 fold enrichment and the “log2 fold enrichment after MNV infection relative to mock infected cells, CW3 MOI 5” value was determined as 7.8 log2 fold enrichment. Moreover, in the data set on MNoV^CR6, the “log2 fold enrichment after MNV infection relative to mock infected cells, CR6 MOI 0.05” value was found to be 12.0 log2 fold enrichment and the “log2 fold enrichment after MNV infection relative to mock infected cells, CR6 MOI 5” value was found to be 11.0 log2 fold enrichment.

Take “CATAGGTCACTGTAAAGGTG: sgRNA used in screen, matches CD300la (listed as DNA, chemistry not given here)”: in the data set with MNoV^CW3, the “log2 fold enrichment after MNV infection relative to mock infected cells, CW3 MOI 0.05” value is listed as −7.2 log2 fold enrichment and the “log2 fold enrichment after MNV infection relative to mock infected cells, CW3 MOI 5” value is −7.2 log2 fold enrichment. For the same substance, in the data set with MNoV^CR6, the “log2 fold enrichment after MNV infection relative to mock infected cells, CR6 MOI 0.05” value is −7.2 log2 fold enrichment and the “log2 fold enrichment after MNV infection relative to mock infected cells, CR6 MOI 5” value is −7.2 log2 fold enrichment.
